The values that follow come from patent US20120295935A1, “MIXED AMINAL PHARMACEUTICAL COMPOSITIONS AND USES THEREOF” (priority 2010, published 2012).

The test system of assay [1] is MC3T3 cells. The experiment in a line: Cell proliferation and death. Type of assay: cell-based. The settings on record: 1 h incubation with 10 nM (mild ER stress).
In assay [2] the test system is MC3T3 cells. As to the kind of experiment: mRNA expression levels by real-time PCR. Type of assay: cell-based, mouse. The settings on record: 1-100 nM for 1-24 h.
In assay [3] the test system is MC3T3 cells. The experiment in a line: mRNA expression levels by real-time PCR. Type of assay: cell-based, mouse. How it is done: Responses to Administration of Thapsigargin—Upregulation of transcription factors linked to bone formation as well as PERK: The effects of 10 nM thapsigargin on mRNA expression levels of ISR-linked genes (ATF4, ATF3, and CHOP) as well as genes involved in bone remodeling (Runx2, Osterix, and Rank1), were examined (FIG. 5). […] Out of 4 transcription factors (ATF4, ATF3, Runx2, and Osterix), the level of ATF4 mRNA was elevated 2-4 fold throughout the treatments. […] The mRNA level of type 1 collagen was elevated 5 h and 10 h for T1h (1 h exposure at 10 nM).
Responses to Administration of Salubrinal—In vitro responses to salubrinal: In order to evaluate the effects of salubrinal, MC3T3 E1 osteoblast-like cells and MLO-A5 osteocyte cells (Barragan-Adjemian, C., et al., “Mechanism by which MLO-A5 late osteoblasts/early osteocytes mineralize in culture: similarities with mineralization of lamellar bone,” Calcif. Tissue Int. 79:340-353 (2006)) were incubated with salubrinal at 100 nM-50 μM for 1-24 h. The mRNA levels of the selected genes, TF4, ATF3, Osteocalcin (OCN), and CHOP, were determined by real-time PCR. […] In MC3T3 cells, for instance, the Osteocalcin mRNA level, which is regulated by ATF4 and Runx2 (Xiao et al. 2005), was elevated 11.8±0.2 fold at 10 μM salubrinal in 24 h.

The test system of assay [4] is MC3T3 cells. As to the kind of experiment: Phosphorylation of eIF2α kinases (PERK, PKR) and MAP kinases (p-38 MAPK, ERK1/2). Type of assay: cell-based, mouse. The following applies: 10 nM, 1 h exposure. As to the method: In response to T1h (1 h exposure at 10 nM), the level of phosphorylation of two eIF2α kinases (PERK and PKR), and two MAP kinases (p-38 MAPK and ERK1/2) was examined (FIG. 6).

Assay [5] deals with MC3T3 E1 osteoblast-like cells. The experiment in a line: Western blot of eIF2α-p, ATF4, CHOP and caspase 3 proteins in response to thapsigargin. The format is cell-based, mouse. As to the method:
At higher doses of 10 and 100 nM, the levels of eIF2α-p and ATF4 proteins were elevated (FIG. 3A). Thapsigarin is known to induce apoptosis when administered above a threshold concentration.
On the technique in general: In western blotting, separated proteins are transferred to a membrane and probed.

Entries after “also recorded” stand apart in the source; their conditions may differ.

Turning to `C/C=C(/C)C(=O)O[C@H]1C(C)=C2[C@H]([C@@H]1OC(=O)CCCCCCC)[C@@](C)(OC(C)=O)C[C@H](OC(=O)CCC)[C@@]1(O)[C@H]2OC(=O)[C@@]1(C)O` [thapsigargin], the “numbers of live and dead cells (cell number or mortality)” value in assay [1] is on record as “does not alter; also recorded: no significant difference”. The “Osteocalcin mRNA level” value in assay [2] is “did not increase”. In addition, in assay [3] (10 nM), the “ATF3 mRNA level” value is reported as 100-1000 times; the “CHOP mRNA level” value is on record as 10-35 fold; the “Osterix mRNA” value is “enhanced at 1 h”; the “Runx2 mRNA increase” value was “started at 3 h and peaked at 5 h”. In addition, in assay [3] (10 nM, 1, 2 and 3 h exposures), the “ATF4 mRNA level” value is 2-4 fold. Besides, the “Rank1 mRNA” value in assay [3] (3 h for T2h and 10 h for T3h, 10 nM) is on record as “significantly up”. The “type 1 collagen mRNA level” value in assay [3] (5 h and 10 h for T1h (1 h exposure at 10 nM)) is given as “elevated”. Besides, in assay [4], the p-ERK1/2 level result is “not altered; also recorded: unchanged”, the p-PERK level result is on record as “elevated; also recorded: Activation”, the p-PKR level entry was “not altered; also recorded: unchanged” and the “p-p38 MAPK level” value is recorded as “elevated; also recorded: Activation”. Further, in assay [5] (10 nM), the CHOP protein level entry was “started to increase after 3 h”, the “Pro-caspase 3 level” value was “not significantly altered” and the “cleaved caspase 3 (active form) level” value is recorded as “increased after 24 h”. Besides, in assay [5] (10 and 100 nM), the ATF4 protein level entry is “elevated” and the eIF2α-p protein level result is “elevated”. In assay [5] (lower dosages below 0.1 nM), the ATF4 protein level result is recorded as “no detectable upregulation” and the eIF2α-p protein level entry is recorded as “no detectable upregulation”.
